Twelve compounds from patent US9896440B2, “Aryl substituted heterocyclyl sulfones” (GRÜNENTHAL GMBH, priority 2014, dated 2018) can be followed below.

Where only a bound is given, the exact number is not on record here.

The assay deals with T1, Human CaV2.2 channels (Homo sapiens, UniProt Q00975).
T1 construct: expressed in transfected cells; Kir2.3 also stably co-expressed
Briefly: Fluorescence assay for CaV2.2 channels using potassium depolarization to induce channel opening (FLIPR, Fluo 4). The assay is classed as cell-based. The note with it: 30 mM KCl assay buffer (inactivated channel state), HEK293 cells; for inhibition at 3 µM: HEK293, 3 μM test compound, read-out: Activity Category: %-Inhib (CaV2.2) @3 μM @30 mM KCl; for Activity Category: %-Inhib (CaV2.2) @3 μM @30 mM KCl: 3 μM test compound. In outline: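 HEK293 cells stably co-expressing human CaV2.2 with α2δ and β subunits plus Kir2.3, Fluo-4 loaded; compounds preincubated 15 min at 25 °C in 1 mM or 30 mM KCl buffer (inactivated state), pH 7.4. Depolarized by KCl addition; baseline-normalized peak fluorescence (ex 480/em 535 nm) gave inhibition.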

T1 sequence (Q00975 whole entry): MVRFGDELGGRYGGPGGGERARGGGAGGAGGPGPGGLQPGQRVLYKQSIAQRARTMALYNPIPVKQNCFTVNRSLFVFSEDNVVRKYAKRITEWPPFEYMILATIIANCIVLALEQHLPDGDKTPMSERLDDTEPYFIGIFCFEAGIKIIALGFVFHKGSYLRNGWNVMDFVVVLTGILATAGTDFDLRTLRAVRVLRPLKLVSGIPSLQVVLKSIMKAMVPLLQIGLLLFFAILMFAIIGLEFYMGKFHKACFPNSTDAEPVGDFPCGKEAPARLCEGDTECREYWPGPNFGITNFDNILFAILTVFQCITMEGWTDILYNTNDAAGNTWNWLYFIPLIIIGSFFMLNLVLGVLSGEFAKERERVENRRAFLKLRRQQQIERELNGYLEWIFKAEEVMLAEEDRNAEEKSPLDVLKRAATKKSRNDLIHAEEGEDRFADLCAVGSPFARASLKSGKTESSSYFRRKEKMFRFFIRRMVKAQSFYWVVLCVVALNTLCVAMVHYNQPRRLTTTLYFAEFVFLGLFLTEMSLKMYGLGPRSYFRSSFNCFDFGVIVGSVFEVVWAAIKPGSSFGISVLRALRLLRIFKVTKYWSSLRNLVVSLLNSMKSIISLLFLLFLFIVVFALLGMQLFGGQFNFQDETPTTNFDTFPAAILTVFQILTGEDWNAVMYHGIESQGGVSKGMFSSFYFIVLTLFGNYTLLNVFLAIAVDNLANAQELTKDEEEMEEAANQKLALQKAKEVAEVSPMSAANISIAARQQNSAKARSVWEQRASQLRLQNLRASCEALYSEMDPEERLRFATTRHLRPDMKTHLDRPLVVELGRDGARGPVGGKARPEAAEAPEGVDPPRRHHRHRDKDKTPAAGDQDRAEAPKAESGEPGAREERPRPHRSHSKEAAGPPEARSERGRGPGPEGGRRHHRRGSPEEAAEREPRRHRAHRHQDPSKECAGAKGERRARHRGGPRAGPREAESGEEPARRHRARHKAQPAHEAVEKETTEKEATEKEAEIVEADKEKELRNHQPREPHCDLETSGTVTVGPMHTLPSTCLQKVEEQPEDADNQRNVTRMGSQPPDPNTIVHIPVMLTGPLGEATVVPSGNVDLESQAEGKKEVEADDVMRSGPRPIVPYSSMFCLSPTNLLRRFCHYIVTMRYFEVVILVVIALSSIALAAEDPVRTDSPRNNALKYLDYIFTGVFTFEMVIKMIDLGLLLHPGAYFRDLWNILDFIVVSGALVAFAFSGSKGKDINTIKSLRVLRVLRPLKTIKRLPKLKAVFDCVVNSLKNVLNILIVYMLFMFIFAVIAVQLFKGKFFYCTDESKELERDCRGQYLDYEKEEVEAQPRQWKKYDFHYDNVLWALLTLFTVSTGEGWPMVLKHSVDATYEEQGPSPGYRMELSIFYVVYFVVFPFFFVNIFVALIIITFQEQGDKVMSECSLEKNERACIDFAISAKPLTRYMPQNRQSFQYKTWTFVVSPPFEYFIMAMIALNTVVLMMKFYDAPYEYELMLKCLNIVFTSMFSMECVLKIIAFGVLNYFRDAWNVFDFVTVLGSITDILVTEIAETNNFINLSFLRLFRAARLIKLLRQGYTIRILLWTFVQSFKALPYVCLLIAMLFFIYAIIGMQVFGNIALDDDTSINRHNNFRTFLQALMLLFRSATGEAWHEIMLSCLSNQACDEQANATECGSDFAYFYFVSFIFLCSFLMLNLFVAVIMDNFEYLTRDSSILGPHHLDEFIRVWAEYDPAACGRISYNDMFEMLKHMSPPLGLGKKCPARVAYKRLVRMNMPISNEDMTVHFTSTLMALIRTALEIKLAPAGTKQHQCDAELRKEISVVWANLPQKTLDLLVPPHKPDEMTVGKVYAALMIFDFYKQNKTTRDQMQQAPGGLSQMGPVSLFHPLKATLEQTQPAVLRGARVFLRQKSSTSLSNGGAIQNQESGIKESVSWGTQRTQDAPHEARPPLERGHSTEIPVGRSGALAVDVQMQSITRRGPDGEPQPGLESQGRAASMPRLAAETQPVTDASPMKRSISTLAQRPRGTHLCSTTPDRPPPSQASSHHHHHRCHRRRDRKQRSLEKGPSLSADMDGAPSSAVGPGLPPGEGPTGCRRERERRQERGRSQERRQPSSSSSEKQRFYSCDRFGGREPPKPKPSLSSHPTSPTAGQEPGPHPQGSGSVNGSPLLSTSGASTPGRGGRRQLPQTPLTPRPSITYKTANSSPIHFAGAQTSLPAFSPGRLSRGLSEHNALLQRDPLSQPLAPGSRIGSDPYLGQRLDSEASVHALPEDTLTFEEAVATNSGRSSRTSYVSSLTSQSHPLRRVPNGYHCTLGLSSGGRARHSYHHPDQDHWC

Consider `CC1(S(=O)(=O)c2cccc(C(F)(F)F)c2)CCOC(c2ccc(S(C)(=O)=O)c(Cl)c2)C1` (stereo not drawn) [SC-239, 2-(3-Chloro-4-methylsulfonyl-phenyl)-4-methyl-4-[[3-(trifluoromethyl)phenyl]sulfonyl]-tetrahydro-pyran], for which the inhibition at 3 µM is greater than 95%.

Regarding `CC1(S(=O)(=O)c2cccc(C(F)(F)F)c2)CCOC(c2ccc(S(C)(=O)=O)cc2F)C1` (stereo not drawn) [SC-241, 2-(2-Fluoro-4-methylsulfonyl-phenyl)-4-methyl-4-[[3-(trifluoromethyl)phenyl]sulfonyl]-tetrahydro-pyran], the inhibition at 3 µM was greater than 95%. Same read-out and setting: to `CC1(S(=O)(=O)c2cccc(C(F)(F)F)c2)CCOC(c2cc(Cl)cc(S(C)(=O)=O)c2)C1` (stereo not drawn) [SC-243, 2-(3-Chloro-5-methylsulfonyl-phenyl)-4-methyl-4-[[3-(trifluoromethyl)phenyl]sulfonyl]-tetrahydro-pyran] belongs greater than 95%; to `CC1(S(=O)(=O)c2cccc(C(F)(F)F)n2)CCOC(c2ccc(S(C)(=O)=O)c(F)c2)C1` (stereo not drawn) [SC-245, 2-[[2-(3-Fluoro-4-methylsulfonyl-phenyl)-4-methyl-tetrahydro-pyran-4-yl]sulfonyl]-6-(trifluoromethyl)-pyridine], 40 to 75%.

In the case of `CC1(S(=O)(=O)c2cccc(C(F)(F)F)c2)CCOC(c2cc(S(C)(=O)=O)ccc2Cl)C1` (stereo not drawn) [SC-247, 2-(2-Chloro-5-methylsulfonyl-phenyl)-4-methyl-4-[[3-(trifluoromethyl)phenyl]sulfonyl]-tetrahydro-pyran], the inhibition at 3 µM was greater than 95%. `CC1(S(=O)(=O)c2cccc(C(F)(F)F)c2)CCOC(c2ccc(C(F)(F)F)c(S(C)(=O)=O)c2)C1` (stereo not drawn) [SC-249, 4-Methyl-2-[3-methylsulfonyl-4-(trifluoromethyl)-phenyl]-4-[[3-(trifluoromethyl)phenyl]sulfonyl]-tetrahydro-pyran]: the inhibition at 3 µM is greater than 95%. Regarding `CC1(S(=O)(=O)c2cccc(C(F)(F)F)c2)CCOC(c2ccc(C#N)cc2S(C)(=O)=O)C1` (stereo not drawn) [SC-251, 3-Methylsulfonyl-4-[4-methyl-4-[[3-(trifluoromethyl)phenyl]sulfonyl]-tetrahydro-pyran-2-yl]-benzonitrile], the inhibition at 3 µM is greater than 95%. As to `CC1(S(=O)(=O)c2cccc(C(F)(F)F)c2)CCOC(c2ccc(C#N)cc2S(C)(=O)=O)C1` (stereo not drawn) [SC-252, 3-Methylsulfonyl-4-[4-methyl-4-[[3-(trifluoromethyl)phenyl]sulfonyl]-tetrahydro-pyran-2-yl]-benzonitrile], the “Activity Category: %-Inhib (CaV2.2) @3 μM @30 mM KCl” value is given as “B (%-Inhibition >75% up to ≦95%)”. For `Cc1cc(S(C)(=O)=O)ccc1C1CC(C)(S(=O)(=O)c2cccc(C(F)(F)F)c2)CCO1` (stereo not drawn) [SC-253, 4-Methyl-2-(2-methyl-4-methylsulfonyl-phenyl)-4-[[3-(trifluoromethyl)phenyl]sulfonyl]-tetrahydro-pyran], the inhibition at 3 µM is 75 to 95%.

As for `Cc1cc(S(C)(=O)=O)ccc1C1CC(C)(S(=O)(=O)c2cccc(C(F)(F)F)c2)CCO1` (stereo not drawn) [SC-254, 4-Methyl-2-(2-methyl-4-methylsulfonyl-phenyl)-4-[[3-(trifluoromethyl)phenyl]sulfonyl]-tetrahydro-pyran], the “Activity Category: %-Inhib (CaV2.2) @3 μM @30 mM KCl” value is “A (%-Inhibition >95%)”. With `CC1(S(=O)(=O)c2cccc(C(F)(F)F)c2)CCOC(c2ccc(S(C)(=O)=O)cc2C(F)(F)F)C1` (stereo not drawn) [SC-255, 4-Methyl-2-[4-methylsulfonyl-2-(trifluoromethyl)-phenyl]-4-[[3-(trifluoromethyl)phenyl]sulfonyl]-tetrahydro-pyran], the inhibition at 3 µM was greater than 95%.

Consider `CC1(S(=O)(=O)c2cccc(C(F)(F)F)c2)CCOC(c2cc(C#N)cc(S(C)(=O)=O)c2)C1` (stereo not drawn) [SC-257, 3-Methylsulfonyl-5-[4-methyl-4-[[3-(trifluoromethyl)phenyl]sulfonyl]-tetrahydro-pyran-2-yl]-benzonitrile], for which the inhibition at 3 µM fell in the range of 75 to 95%.
